Literature values as cited in PubChem BioAssay AID1259409 (Chemical Carcinogenesis Research Information System (CCRIS), 2018).

System: rodent chemically induced tumor inhibition, incidence and multiplicity
Test: CCRIS tumor inhibitor studies

## CC1=C(/C=C/C(C)=C/C=C/C(C)=C\C(=O)O)C(C)(C)CCC1
Carcinogen: N-BUTYL-N-(4-HYDROXYBUTYL)NITROSAMINE, 3817-11-6, Dose [Inhibitor]: 200 MG/KG DIET DAILY STARTING 7 D AFTER LAST CARCINOGEN DOSE AND CONTINUING THROUGH THE END OF STUDY (STUDY DURATION: 6, Route [Inhibitor]: ORAL, Species: MOUSE, Strain/Sex: C57BL/MALE, Target Tissue: Type of Lesion: URINARY BLADDER: TRANSITIONAL AND SQUAMOUS CELL CARCINOMA, Dose [Carcinogen]: 7.5 MG 2/WK FOR 6 WK, Promoter: NONE USED
  tumour outcome (control, treated, inhibition, significance): 8/24 (33%), 0/19 (0%), 100%, p<0.01
Carcinogen: N-BUTYL-N-(4-HYDROXYBUTYL)NITROSAMINE, 3817-11-6, Dose [Inhibitor]: 200 MG/KG DIET DAILY STARTING 7 D AFTER LAST CARCINOGEN INTUBATION AND CONTINUING THROUGH THE END OF STUDY (STUDY DURATI, Route [Inhibitor]: ORAL, Species: MOUSE, Strain/Sex: C57BL/MALE, Target Tissue: Type of Lesion: URINARY BLADDER: NEOPLASM (CARCINOMA, NONINVASIVE TRANSITIONAL CELL PAPILLOMA), Dose [Carcinogen]: 10 MG 2/WK FOR 7 WK, Promoter: NONE USED
  tumour outcome (control, treated, inhibition, significance): 12/22 (55%), 8/25 (32%), 42%, not significant
Carcinogen: N-BUTYL-N-(4-HYDROXYBUTYL)NITROSAMINE, 3817-11-6, Dose [Inhibitor]: 200 MG/KG DIET DAILY STARTING 7 D AFTER LAST CARCINOGEN INTUBATION AND CONTINUING THROUGH THE END OF STUDY (STUDY DURATI, Route [Inhibitor]: ORAL, Species: MOUSE, Strain/Sex: C57BL/MALE, Target Tissue: Type of Lesion: URINARY BLADDER: SQUAMOUS CELL CARCINOMA, Dose [Carcinogen]: 7.5 MG 2/WK FOR 6 WK, Promoter: NONE USED
  outcome: 6/24 (25%), 0/19 (0%), p<0.05
Carcinogen: N-BUTYL-N-(4-HYDROXYBUTYL)NITROSAMINE, 3817-11-6, Dose [Inhibitor]: 200 MG/KG DIET DAILY STARTING 7 D AFTER LAST CARCINOGEN INTUBATION AND CONTINUING THROUGH THE END OF STUDY (STUDY DURATI, Route [Inhibitor]: ORAL, Species: MOUSE, Strain/Sex: C57BL/MALE, Target Tissue: Type of Lesion: URINARY BLADDER: SQUAMOUS CELL CARCINOMA, Dose [Carcinogen]: 10 MG 2/WK FOR 7 WK, Promoter: NONE USED
  tumour outcome (control, treated, inhibition, significance): 6/22 (27%), 5/25 (20%), 26%, not significant
Carcinogen: N-BUTYL-N-(4-HYDROXYBUTYL)NITROSAMINE, 3817-11-6, Dose [Inhibitor]: 200 MG/KG DIET DAILY STARTING 7 D AFTER LAST CARCINOGEN INTUBATION AND CONTINUING THROUGH THE END OF STUDY (STUDY DURATI, Route [Inhibitor]: ORAL, Species: MOUSE, Strain/Sex: C57BL/MALE, Target Tissue: Type of Lesion: URINARY BLADDER: TRANSITIONAL AND SQUAMOUS CELL CARCINOMA, Dose [Carcinogen]: 10 MG 2/WK FOR 7 WK, Promoter: NONE USED
  tumour outcome (control, treated, inhibition, significance): 10/22 (45%), 7/25 (28%), 38%, not significant
Carcinogen: N-BUTYL-N-(4-HYDROXYBUTYL)NITROSAMINE, 3817-11-6, Dose [Inhibitor]: 240 MG/KG DIET DAILY STARTING 1, 5 OR 9 WK AFTER LAST CARCINOGEN INTUBATION AND CONTINUING THROUGH THE END OF STUDY (STU, Route [Inhibitor]: ORAL, Species: RAT, Strain/Sex: F344/MALE, Target Tissue: Type of Lesion: URINARY BLADDER: TRANSITIONAL CELL CARCINOMA, Dose [Carcinogen]: 100 MG 2/WK FOR 6 WK, Promoter: NONE USED
  tumour outcome (control, treated, inhibition, significance): 53%, 47%, 11%, not significant
Carcinogen: N-BUTYL-N-(4-HYDROXYBUTYL)NITROSAMINE, 3817-11-6, Dose [Inhibitor]: 240 MG/KG DIET DAILY STARTING 1, 5 OR 9 WK AFTER LAST CARCINOGEN INTUBATION AND CONTINUING THROUGH THE END OF STUDY (STU, Route [Inhibitor]: ORAL, Species: RAT, Strain/Sex: F344/MALE, Target Tissue: Type of Lesion: URINARY BLADDER: TRANSITIONAL CELL CARCINOMA, Dose [Carcinogen]: 150 MG 2/WK FOR 6 WK, Promoter: NONE USED
  tumour outcome (control, treated, inhibition, significance): 82%, 65%, 21%, p<0.01
Carcinogen: N-BUTYL-N-(4-HYDROXYBUTYL)NITROSAMINE, 3817-11-6, Dose [Inhibitor]: 240 MG/KG DIET DAILY STARTING 1, 5 OR 9 WK AFTER LAST CARCINOGEN INTUBATION AND CONTINUING THROUGH THE END OF STUDY (STU, Route [Inhibitor]: ORAL, Species: RAT, Strain/Sex: F344/MALE, Target Tissue: Type of Lesion: URINARY BLADDER: TRANSITIONAL CELL CARCINOMA, Dose [Carcinogen]: 200 MG 2/WK FOR 6 WK, Promoter: NONE USED
  tumour outcome (control, treated, inhibition, significance): 94%, 74%, 21%, p<0.001
Carcinogen: N-BUTYL-N-(4-HYDROXYBUTYL)NITROSAMINE, 3817-11-6, Dose [Inhibitor]: 240 MG/KG DIET DAILY STARTING 1 WK AFTER LAST CARCINOGEN DOSE AND CONTINUING FOR DURATION OF STUDY (STUDY DURATION: 6 MO, Route [Inhibitor]: ORAL, Species: RAT, Strain/Sex: F344/MALE, Target Tissue: Type of Lesion: BLADDER: TRANSITIONAL CELL CARCINOMA (HIGH GRADE), Dose [Carcinogen]: 200 MG IN 0.5 ML OF 20% ETHANOL 2/WK FOR 6 WK, Promoter: NONE USED
  tumour outcome (control, treated, inhibition, significance): 9/22 (41%), 4/21(19%), 54%, p<.05
Carcinogen: N-METHYL-N'-NITRO-N-NITROSOGUANIDINE, 70-25-7, Dose [Inhibitor]: 34 NMOL ONCE 0.5 HR BEFORE CARCINOGEN APPLICATION (STUDY DURATION: 25 WK), Route [Inhibitor]: DERMAL, Species: MOUSE, Strain/Sex: CD-1/FEMALE, Target Tissue: Type of Lesion: SKIN: PAPILLOMA, Dose [Carcinogen]: 5 UMOL IN 0.2 ML ACETONE ONCE 0.5 HR AFTER AGENT TREATMENT, Promoter: 12-O-TETRADECANOYLPHORBOL-13-ACETATE, 16561-29-8
  tumour outcome (control, treated, inhibition, significance): 92%, 96%, -4%, not significant
Carcinogen: N-METHYL-N-NITROSOUREA, 684-93-5, Dose [Inhibitor]: 12.5 MG/KG DAILY IN DIET STARTING 1 D AFTER LAST CARCINOGEN INJECTION AND CONTINUING FOR 256 D (STUDY DURATION: 285 D), Route [Inhibitor]: ORAL, Species: RAT, Strain/Sex: WISTAR-LEWIS/FEMALE, Target Tissue: Type of Lesion: URINARY BLADDER: PAPILLARY UROTHELIAL TUMOR, Dose [Carcinogen]: 1.5 MG IN 0.15 ML SALINE INJECTED INTO A SURGICALLY EXPOSED BLADDER 1/2 WK FOR A TOTAL OF 3 INJECTIONS, Promoter: NONE USED
  tumour outcome (control, treated, inhibition, significance): 8/30 (27%), 2/21 (10%), 63%, p<0.05
